Assay results from patent publication US6534520B2, “Antiviral compounds” (priority 1997, dated 2003).
In brackets after ≈: the same amount, converted by molar mass. Read-outs that look alike come from different tables or passages of the source.

How the values were obtained:
[1] = test system: Influenza A; assay: microbe, parasite or virus in culture; assay type: cell-based; settings: for IC50: Influenza A virus, read-out: INFLUENZA A IC50
[2] = Cytotoxicity in PBMCs (anti-HIV tests); assay type: cell-based; settings: human; PBMCs, HIVROJO
[3] = test system: HIVROJO; assay: Anti-HIV activity against HIVROJO in PBMCs; assay type: cell-based; settings: for IC50: Human immunodeficiency virus 1, PBMC, read-out: HIVROJO (PBMCs) IC50
[4] = test system: Adenovirus; assay: Antiviral activity against Adenovirus (CPE inhibition / neutral red); assay type: cell-based
[5] = test system: Rhinovirus (RV); assay: Antiviral activity against Rhinovirus (CPE inhibition / neutral red); assay type: cell-based; settings: for IC50: Enterovirus, read-out: RV IC50
[6] = test system: Influenza B; assay: microbe, parasite or virus in culture; assay type: cell-based; settings: for IC50: Influenza B virus
[7] = Cytotoxicity run with the RSV test
[8] = Cytotoxicity run with the Influenza B test; assay type: cell-based
Method: (§1) Methods For Assay Of Cytotoxicity
(§2) In the CPE inhibition test, two wells of uninfected cells treated with each concentration of test Compound are run in parallel with the infected, treated wells. At the time CPE is determined microscopically, the toxicity control cells are also examined microscopically for any changes in cell appearance compared to normal control cells run in the same plate. These changes may be enlargement, granularity, cells with ragged edges, a filmy appearance, rounding, detachment from the surface of the well, or other changes. These changes are given a designation of T (100% toxic), PVH (partially toxic-very heavy-80%), PH (partially toxic-heavy-60%), P (partially toxic-40%), PS (partially toxic-slight-20%), or 0 (no toxicity-0%), conforming to the degree of cytotoxicity seen.
(§3) In the neutral red dye uptake phase of the antiviral test described above, the two toxicity control wells also receive neutral red and the degree of color intensity is determined spectrophotometrically. A neutral red CC50 (NRCC50) is subsequently determined.
(§4) C. ^3H Thymidine Uptake Assay
(§5) Flat bottom 96 well plates are plated with 5X10E3 Vero-34 cells/well and 1X10E4 Hs68 or Wi-38 cells/well respectively and incubated overnight at 37° C. and 5% CO2/air. After incubation, the supernatant medium is removed and replaced with test Compound dilutions in 2% DMEM (150 ul). The cells are then incubated 48 hours in a 5% CO2 incubator at 37° C.
(§6) 50 μl/well of 10 uCi/ml solution of [3H]-methyl thymidine (specific activity of approx. 2Ci/mmol) is added to the culture medium and incubated overnight (18 hours) in a 5% CO2 incubator at 37° C.
(§7) Cells are then collected onto a fiberglass filter (Printed Filtermat A 1450-421 Wallac) with a Tomtec cell harvester. Suspended cells are collected directly onto filter while for adherent cells, the medium is first removed, then the cells washed with PBS and trypsinized for 2-3 minutes (50 μl trypsin/well) before collecting.
(§8) Filters are dried for 1 hour at 37-40° C. and then placed into bags (1450-microbeta #1450-432 Wallac) with 4.5 ml of Betascint and counts obtained with Microbeta 1450 Wallac (protocol 1).
(§9) The percent of cell proliferation is determined by comparison to the control (no test Compound) and thereby establishing 50% inhibitory concentration is established.

[9] = Cytotoxicity run with the Parainfluenza test
[10] = Cytotoxicity run with the Adenovirus test
[11] = Cytotoxicity run with the Rhinovirus test
[12] = test system: HIVTEKI; assay: Anti-HIV activity against HIVTEKI in PBMCs; settings: Human immunodeficiency virus 1, PBMC, read-out: HIVTEKI (PBMCs) IC50
[13] = test system: Respiratory Syncitial Virus (RSV); assay: Antiviral activity against RSV (CPE inhibition / neutral red); assay type: cell-based
[14] = test system: Parainfluenza; assay: Antiviral activity against Parainfluenza (CPE inhibition / neutral red); assay type: cell-based
[15] = Cytotoxicity run with the Influenza A test; assay type: cell-based
Method: as §1, §2, §3, §4, §5, §6, §7, §8, §9

[16] = Cytotoxicity run with the HSV-1 test
[17] = test system: HSV-1; assay: Antiviral activity against HSV-1 (CPE inhibition / neutral red); assay type: cell-based, herpes simplex virus type 1
[18] = test system: HSV-2; assay: Antiviral activity against HSV-2 (CPE inhibition / neutral red); assay type: cell-based, herpes simplex virus type 2
[19] = Cytotoxicity run with the HSV-2 test
[20] = test system: PBMCs; assay: Cytotoxicity in PBMCs (anti-HIV tests); assay type: cell-based
[21] = test system: uninfected cells
[22] = test system: uninfected cells; assay: Cytotoxicity run with the Influenza B test; assay type: cell-based
Method: as §1, §2, §3, §4, §5, §6, §7, §8, §9

[23] = test system: uninfected cells; assay: Cytotoxicity run with the Parainfluenza test; settings: cytotoxicity, Parainfluenza test
[24] = test system: uninfected cells; assay: Cytotoxicity run with the Adenovirus test; settings: cytotoxicity, Adenovirus test
[25] = test system: uninfected cells; remark: listed apart in the source
[26] = test system: uninfected cells; remark: listed apart in the source
[27] = test system: uninfected cells; remark: listed apart in the source
[28] = test system: uninfected cells; assay: Cytotoxicity run with the Influenza A test; assay type: cell-based
Method: as §1, §2, §3, §4, §5, §6, §7, §8, §9

[29] = unidentified adenovirus; read-out: ADENOVIRUS IC50
[30] = human respiratory syncytial virus; read-out: RSV IC50
[31] = Human alphaherpesvirus 1; read-out: HSV-1 IC50

| SMILES | IC50 [1] [µg/mL] | CC50 [2] [µg/mL] | IC50 ([3]; HIVROJO, PBMCs) [µg/mL] | IC50 [4, 29] [µg/mL] | IC50 ([5]; Rhinovirus) [µg/mL] | IC50 [6] [µg/mL] | CC50 [7] [µg/mL] | CC50 [8] [µg/mL] | CC50 [9] [µg/mL] | CC50 [10] [µg/mL] | CC50 [11] [µg/mL] | IC50 [12] [µg/mL] | IC50 [13, 30] [µg/mL] | IC50 [14] [µg/mL] | CC50 [15] [µg/mL] | CC50 [16] [µg/mL] | IC50 [17, 31] [µg/mL] | other results |
| --- | --- | --- | --- | --- | --- | --- | --- | --- | --- | --- | --- | --- | --- | --- | --- | --- | --- | --- |
| C=Cc1cncc2ccc(C(=O)NCc3ccccc3OC(C)C)nc12 [#63, 8-(vinyl)-[1,6]Naphthyridine-2-carboxylic acid 2-isopropoxybenzylamine] | 5.6 (≈ 16.1 µM) | 7 (≈ 20.1 µM) | 0.7 (≈ 2.01 µM) | 9 (≈ 25.9 µM) | 2 (≈ 5.76 µM) | 5.2 (≈ 15 µM) | 5 (≈ 14.4 µM) | 2.4 (≈ 6.91 µM) | 8 (≈ 23 µM) | 7 (≈ 20.1 µM) | 9 (≈ 25.9 µM) | 4.9 (≈ 14.1 µM) | 12 (≈ 34.5 µM) | 10 (≈ 28.8 µM) | 5.6 (≈ 16.1 µM) | – | – | – |
| Cc1cncc2ccc(C(=O)NCc3ccccc3OC(C)C)nc12 [#64, 8-(methyl)-[1,6]Naphthyridine-2-carboxylic acid 2-isopropoxybenzylamine] | 2.4 (≈ 7.16 µM) | 4.3 (≈ 12.8 µM) | 0.28 (≈ 0.835 µM) | 3 (≈ 8.94 µM) | > 0.08 | 1.8 (≈ 5.37 µM) | 0.6 (≈ 1.79 µM) | 1.8 (≈ 5.37 µM) | 1 (≈ 2.98 µM) | 1 (≈ 2.98 µM) | 16 (≈ 47.7 µM) | 0.8 (≈ 2.39 µM) | 0.6 (≈ 1.79 µM) | 1 (≈ 2.98 µM) | 2.4 (≈ 7.16 µM) | 3.5 (≈ 10.4 µM) | 2 (≈ 5.96 µM) | – |
| C[C@@H](NC(=O)c1ccc2cncc(Br)c2n1)c1ccccc1 [#66, 8-Bromo-[1,6]naphthyridine-2-carboxylic acid (1-phenyl-ethyl)-amide] | 56 (≈ 157 µM) | 27.3 (≈ 76.6 µM) | – | – | – | 18 (≈ 50.5 µM) | 5 (≈ 14 µM) | 18 (≈ 50.5 µM) | 10 (≈ 28.1 µM) | 8 (≈ 22.5 µM) | 3 (≈ 8.42 µM) | 2.2 (≈ 6.18 µM) | – | 83 (≈ 233 µM) | 24 (≈ 67.4 µM) | 20 (≈ 56.1 µM) | – | IC50 [3]: 1.4 µg/mL (≈ 3.93 µM); IC50 ([4]; unidentified adenovirus, read-out: ADENOVIRUS IC50): 9 µg/mL (≈ 25.3 µM); IC50 [5]: 0.3 µg/mL (≈ 0.842 µM); IC50 ([17]; Human alphaherpesvirus 1, read-out: HSV-1 IC50): 1 µg/mL (≈ 2.81 µM); IC50 ([13]; human respiratory syncytial virus, read-out: RSV IC50): 4 µg/mL (≈ 11.2 µM) |
| O=C(NCCc1ccccc1)C1=Cc2ccncc2CC1 [#67, 7,8-Dihydro-isoquinoline-6-carboxylic acid phenethyl-amide] | > 100 | 74.7 (≈ 268 µM) | 8.6 (≈ 30.9 µM) | > 100 | > 20 | > 100 | 30 (≈ 108 µM) | > 100 | 30 (≈ 108 µM) | 30 (≈ 108 µM) | 40 (≈ 144 µM) | 41.2 (≈ 148 µM) | > 100 | 100 (≈ 359 µM) | > 100 | > 100 | 16 (≈ 57.5 µM) | IC50 ([18]; Human alphaherpesvirus 2): 86 µg/mL (≈ 309 µM); CC50 [19]: > 100 µg/mL |
| O=C(NCCc1c[nH]c2ccccc12)C1=Cc2ccncc2CC1 [#68] | – | – | – | – | – | – | – | – | – | – | – | – | – | – | – | – | – | INFLUENZA A IC50 [1]: 2.1 µg/mL; HIVROJO (PBMCs) CC50 [20]: 7.1 µg/mL; HIVROJO (PBMCs) IC50 ([3]; HIVROJO, PBMCs): 2.9 µg/mL; ADENOVIRUS IC50 ([4]; Adenovirus): 20 µg/mL; RV IC50 ([5]; Rhinovirus): 2 µg/mL; INFLUENZA B IC50 ([6]; Influenza B): 7.2 µg/mL; RSV CC50 [21]: 20 µg/mL; INFLUENZA B CC50 [22]: 11 µg/mL; PARAINFLUENZA CC50 [23]: 25 µg/mL; HSV-1 IC50 ([17]; HSV-1): 0.72 µg/mL; ADENOVIRUS CC50 [24]: 30 µg/mL; RV CC50 [25]: 10 µg/mL; RSV IC50 ([13]; RSV): 60 µg/mL; HSV-1 CC50 [26]: 12 µg/mL; PARAINFLUENZA IC50 ([14]; Parainfluenza): 50 µg/mL; HSV-2 CC50 [27]: 14 µg/mL; HSV-2 IC50 ([18]; HSV-2): 0.96 µg/mL; INFLUENZA A CC50 [28]: 2.1 µg/mL |
